# Biological target: HIV-1LAI envelope gp120 (Human immunodeficiency virus type 1 group M subtype B, UniProt P03377)
# Assay type: binding
# Settings: CCR5 18-mer scan; radiolabeled HIV-1LAI gp120; background subtracted
row,Sequence,Counts per 20′ Average-background [counts per 20′]
1,QAMQVTETLGMTHCCINP [CCR5 segment 277-],81
2,QEAPERASSVYTRSTGEQ [CCR5 segment 329-],84
3,QEFFGLNNCSSSNRLDQA [CCR5 segment 261-],63
4,QKHIAKRFCKCCSIFQQE [CCR5 segment 313-],23
5,QKINVKQIAARLLPPLYS [CCR5 segment 21-38],20

# Same assay, conditions: CXCR4 18-mer scan; background subtracted, empty control 0
row,Sequence,radioactive counts recorded in twenty minutes [counts]
1,QKRKALKTTVILILAFFA [CXCR4 segment 233-250],283

# Same assay, conditions: CXCR4 18-mer scan; empty control 412
row,Sequence,radioactive counts recorded in twenty minutes [counts]
1,QKRKALKTTVILILAFFA [CXCR4 segment 233-250],695

# Same assay, conditions: Panel A, 21-mers of CD4; empty control 515 and 617
row,Sequence,COUNTS of radiolabeled gp120 retained [counts]
1,PLIIKLNKIEDSDTYICEVED,20145
2,QKASSIVYKKEGEQVEFSFPL,24959

# Same assay, conditions: Panel B, 15-mers and 18-mers of CD4; empty control 575
row,Sequence,COUNTS of radiolabeled gp120 retained [counts]
1,PLIIKNLKIEDSDTY,661
2,PLIIKNLKIEDSDTYICE,624
3,QGNFPLIIKNLKIED,509
4,QGNFPLIIKNLKIEDSDT,564
5,QKEEVQLLVFGLTAN,3770
6,QKEEVQLLVFGLTANSDT,3671
7,QLLVFGLTANSDTHL,865
8,QLLVFGLTANSDTHLLQG,574

# Same assay, conditions: Panel C, 15-mers and 18-mers of CD4; empty control 556
row,Sequence,COUNTS of radiolabeled gp120 retained [counts]
1,QKASSIVYKKEGEQV,519
2,QKASSIVYKKEGEQVEFS,602
3,QKKVEFKIDIVVLAF,1333
4,QKKVEFKIDIVVLAFQKA,1013
5,QNQKKVEFKIDIVVL,636
6,QNQKKVEFKIDIVVLAFQ,917

# Same assay, conditions: Panel D, 9-mers and 12-mers of CD4; empty control […]
row,Sequence,COUNTS of radiolabeled gp120 retained [counts]
1,PLIIKNLKI,697
2,PLIIKNLKIEDS,565
3,QGNFPLIIK,508
4,QGNFPLIIKNLK,533
5,QGQSLTLTL,594
6,QKEEVQLLV,636
7,QKEEVQLLVFGL,1785
8,QLLVFGLTA,822
9,QLLVFGLTANSD,721

# Same assay, conditions: Panel E, 9-mers and 12-mers of CD4; empty control 571
row,Sequence,COUNTS of radiolabeled gp120 retained [counts]
1,QKASSIVYK,494
2,QKASSIVYKKEG,596
3,QKKVEFKID,575
4,QKKVEFKIDIVV,595
5,QNQKKVEFK,537
6,QNQKKVEFKIDI,559

# Same assay, conditions: STRL33 18-mer scan; background subtracted; first of two count columns
row,Sequence,radioactive counts recorded in twenty minutes [counts]
1,PQIIYGNVFNLDKLICGY,−18.5
2,PVLYAFVSLKFRKNFWKL [STRL33 segment 285-302],1859.5
3,QAKRMTWGKVTSLLIWVI,−71.5
4,QKHRSLKIIFLVMAVFLL [STRL33 segment 225-242],810.5

# Same assay, conditions: STRL33 18-mer scan; background subtracted; second of two count columns
row,Sequence,radioactive counts recorded in twenty minutes [counts]
1,PQIIYGNVFNLDKLICGY,−37.5
2,PVLYAFVSLKFRKNFWKL [STRL33 segment 285-302],2147.5
3,QAKRMTWGKVTSLLIWVI,−31.5
4,QKHRSLKIIFLVMAVFLL [STRL33 segment 225-242],814.5

# Same assay, conditions: STRL33 amino terminus; 9-mer starting at the first residue of the printed sequence; background subtracted
row,Sequence,"Binding Results For Window Length (counts bound-background), 9 [counts]"
1,QAFLQFSKV,2600
2,QEEHQAFLQFSK,1109

# Same assay, conditions: STRL33 amino terminus; 12-mer starting at the first residue of the printed sequence; background subtracted
row,Sequence,"Binding Results For Window Length (counts bound-background), 12 [counts]"
1,QEEHQAFLQFSK,5672

# Same assay, conditions: human CD4 21-mer scan; empty control 2075
row,Sequence,number of radioactive decays (counts) counted [counts]
1,PMALIVLGGVAGLLLFIGLGI,3067
2,QAERASSSKSWITFDLINKEV [human CD4 241-261],2588
3,QALPQYAGSGNLTLALEAKTG [human CD4 286-306],2364
4,QLQKNLTCEVWGPTSPKLMLS [human CD4 321-341],1856
